Reference: publication PMC9939733 (The Journal of Biological Chemistry, 2023)
Substitutions are numbered along the chain they refer to. Counter-ions that a name gives are not always drawn.

Assays:
Assay type in all cases: biochemical
[1] = biological target: T1, R140Q IDH2 (Homo sapiens, UniProt P48735, R140Q); experiment: Absorbance assay, variant activity in the presence of equimolar 2OG (inhibition screen); conditions: 6.0 mM 2OG and 6.0 mM test compound, 0.03 μM R140Q IDH2, 50 μM NADPH
T1 construct: made in house; host or cells: Sf21 insect cells (cell pellets prepared at Evotec)
T1 sequence (P48735 40-452 R140Q): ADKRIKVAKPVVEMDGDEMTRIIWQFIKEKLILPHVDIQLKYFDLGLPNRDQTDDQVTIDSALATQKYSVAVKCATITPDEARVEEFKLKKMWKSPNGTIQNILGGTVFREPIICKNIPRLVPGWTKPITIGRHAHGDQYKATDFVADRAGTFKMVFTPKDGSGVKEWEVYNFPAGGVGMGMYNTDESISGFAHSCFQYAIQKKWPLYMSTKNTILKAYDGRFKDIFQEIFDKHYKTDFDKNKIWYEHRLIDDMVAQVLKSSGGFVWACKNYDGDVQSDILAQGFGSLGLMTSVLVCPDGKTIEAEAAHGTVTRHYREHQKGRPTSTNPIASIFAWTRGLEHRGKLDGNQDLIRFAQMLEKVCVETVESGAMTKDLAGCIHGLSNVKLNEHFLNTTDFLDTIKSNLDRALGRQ
Method in brief: (§1)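 Reactions were run as technical quadruplicates. Compounds were dispensed with a simultaneous pipettor, and each assay was started by adding reagent from a bulk dispenser.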

[2] = biological target: T2, R172K IDH2 (Homo sapiens, UniProt P48735, R172K); experiment: as above; conditions: for activity [%] (%-substrate conversion after 20 min incubation): 1.0 mM 2OG and 1.0 mM test compound, 0.03 μM R172K IDH2, 50 μM NADPH
T2 construct: made in house; host or cells: Sf21 insect cells (cell pellets prepared at Evotec)
T2 sequence (P48735 40-452 R172K): T1 sequence (P48735 40-452 R140Q) with Q101R, R133K
Method in brief: as §1

[3] = biological target: T3, R132H IDH1 (Homo sapiens, UniProt O75874, R132H); experiment: as above; parameters: made in house; host or cells: Escherichia coli BL21(DE3) pLyS; conditions: […] 2OG and […] test compound, 0.03 μM R132H IDH1, 50 μM NADPH
Method in brief: as §1

[4] = biological target: T4, WT IDH1 (Homo sapiens, UniProt O75874); experiment: Absorbance assay, WT activity in the presence of equimolar DL-isocitrate (inhibition); conditions: […] isocitrate and […] test compound, 75 μM NADP+, 2.0 nM WT IDH1
T4 construct: made in house; host or cells: Escherichia coli BL21(DE3) pLyS
Method in brief: as §1

[5] = biological target: T5, WT IDH2 (Homo sapiens, UniProt P48735); experiment: as above; conditions: […] isocitrate and […] test compound, 75 μM NADP+, 2.0 nM WT IDH2
T5 construct: made in house; host or cells: Sf21 insect cells (cell pellets prepared at Evotec)
T5 sequence (P48735 40-452): T1 sequence (P48735 40-452 R140Q) with Q101R
Method in brief: as §1

[6] = biological target: T1, R140Q IDH2; experiment: Absorbance assay (NADPH consumption), substrate turnover in the absence of 2OG; conditions: no 2OG; 6.0 mM test compound, 0.03 μM R140Q IDH2, 50 μM NADPH; 2OG = 100
Description: (§2) Compounds were dispensed using a CyBio SDW-CW CyBi-Well Simultaneous Pipettor and assay started using a ThermoFisher Multidrop Combi reagent dispenser.
(§3) Reactions were performed as technical quadruplicates.

[7] = biological target: T2, R172K IDH2; experiment: as above; conditions: no 2OG; 1.0 mM test compound, 0.03 μM R172K IDH2, 50 μM NADPH; 2OG = 100
Description: as §2, §3

[8] = biological target: T4, WT IDH1; experiment: Absorbance assay, substrate activity in the absence of DL-isocitrate; conditions: no DL-isocitrate; […] test compound, 75 μM NADP+, 2.0 nM WT IDH1; compared to DL-isocitrate
Method in brief: as §1

[9] = biological target: T5, WT IDH2; experiment: as above; conditions: no DL-isocitrate; […] test compound, 75 μM NADP+, 2.0 nM WT IDH2; compared to DL-isocitrate
Method in brief: as §1

[10] = biological target: T3, R132H IDH1; experiment: Absorbance assay (NADPH consumption), substrate turnover in the absence of 2OG; parameters: made in house; host or cells: Escherichia coli BL21(DE3) pLyS; conditions: no 2OG; […] test compound, 0.03 μM R132H IDH1, 50 μM NADPH; 2OG = 100
Description: as §2, §3

T3 sequence (O75874 whole entry R132H): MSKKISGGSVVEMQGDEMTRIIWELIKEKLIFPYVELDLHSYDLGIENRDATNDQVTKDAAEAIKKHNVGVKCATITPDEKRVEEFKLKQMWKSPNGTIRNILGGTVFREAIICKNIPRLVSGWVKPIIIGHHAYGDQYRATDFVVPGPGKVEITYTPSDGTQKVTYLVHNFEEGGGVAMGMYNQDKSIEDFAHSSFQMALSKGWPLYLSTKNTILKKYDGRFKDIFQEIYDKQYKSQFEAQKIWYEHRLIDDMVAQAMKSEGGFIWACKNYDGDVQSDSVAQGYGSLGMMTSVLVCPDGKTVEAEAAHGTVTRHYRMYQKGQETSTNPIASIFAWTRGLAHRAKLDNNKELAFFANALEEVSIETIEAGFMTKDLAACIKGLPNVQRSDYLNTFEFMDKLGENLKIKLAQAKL
T4 sequence (O75874 whole entry): as the sequence (O75874 whole entry R132H) above, with H132R counted along it

Structure (SMILES) | activity [%] (%-substrate conversion after 20 min incubation) [1] | activity [%] (%-substrate conversion after 20 min incubation) [2] | activity [%] (%-substrate conversion after 20 min incubation) [3] | activity [%] (%-substrate conversion after 20 min incubation) [4] | activity [%] (%-substrate conversion after 20 min incubation) [5] | activity [%] (%-substrate conversion after 20 min incubation) [6] | activity [%] (%-substrate conversion after 20 min incubation) [7] | activity [%] (%-substrate conversion after 20 min incubation) [8] | activity [%] (%-substrate conversion after 20 min incubation) [9] | activity [%] (%-substrate conversion after 20 min incubation) [10] | inhibition ([2]; equimolar 2OG (1.0 mM))
COC(=O)/C=C/C(=O)OC [dimethyl fumarate] | 61 ± 11% | 91 ± 2% | 85 ± 3% | 104 ± 4% | 100 ± 3% | < 10% | < 10% | < 10% | < 10% | < 10% | 
O=CC(=O)O [glyoxylic acid] | 105 ± 6% | 99 ± 6% | 108 ± 5% | 104 ± 2% | 99 ± 2% | < 10% | < 10% | < 10% | < 10% | < 10% | 
O=C(O)CC(Cc1ccccc1)C(=O)O (racemic) [DL-benzylsuccinic acid] | 123 ± 5% | 98 ± 3% | 93 ± 3% | 103 ± 4% | 101 ± 3% | < 10% | < 10% | < 10% | < 10% | < 10% | 
O=C(O)[C@@H]1CCCN1 [L-proline] | 106 ± 2% | 98 ± 4% | 98 ± 1% | 102 ± 1% | 98 ± 1% | < 10% | < 10% | < 10% | < 10% | < 10% | 

Next, values leading:

activity [%] (%-substrate conversion after 20 min incubation) [1] | activity [%] (%-substrate conversion after 20 min incubation) [2] | activity [%] (%-substrate conversion after 20 min incubation) [3] | activity [%] (%-substrate conversion after 20 min incubation) [4] | activity [%] (%-substrate conversion after 20 min incubation) [5] | activity [%] (%-substrate conversion after 20 min incubation) [6] | activity [%] (%-substrate conversion after 20 min incubation) [7] | activity [%] (%-substrate conversion after 20 min incubation) [8] | activity [%] (%-substrate conversion after 20 min incubation) [9] | activity [%] (%-substrate conversion after 20 min incubation) [10] | inhibition ([2]; equimolar 2OG (1.0 mM)) | Structure (SMILES)
91 ± 5% | 54 ± 1% | 51 ± 5% | 88 ± 1% | 85 ± 1% | < 10% | < 10% | < 10% | < 10% | < 10% | ~ 50% | O=C(O)C(=O)CS [mercaptopyruvic acid]
110 ± 3% | 99 ± 5% | 100 ± 2% | 103 ± 1% | 99 ± 1% | < 10% | < 10% | < 10% | < 10% | < 10% |  | CC(C(=O)O)C(C)C(=O)O (stereo not shown) [1,2-dimethylsuccinic acid]
